Assay results: US20260000608A1, “COMPOSITIONS AND METHODS FOR ADMINISTERING ANESTHETICS” (Children's Medical Center Corporation, priority 2018, published 2026)
“And” between values parts separate entries of the source, which are not always exact repeats. Equal entries are not always repeated.

Assays:
rat tail blood vessels = assay: Distribution within the tail: frozen sections, anti-CD34 staining, CLSM; format: in vivo
Protocol: The slices were imaged by CLSM. The intensity of the Rhd fluorescence was calculated from images using ImageJ.

rat tail [1] = assay: In vivo imaging (IVIS) of Rhd fluorescence retention in rat tail after tourniquet release; conditions: one hour after tourniquet release, n=4
Protocol: For in vivo imaging, the same IVRA procedures were performed, and 0.4 mL of: (i) free Rhd; Rhd-labeled micellar composition comprising bupivacaine; and Rhd-labeled liposomal composition comprising bupivacaine was injected into the tails of rats (n=4) after fastening the tourniquet. Images were taken with an In Vivo Imaging System (PerkinElmer Inc., USA) before releasing the tourniquet, and the signal intensity in those images was considered to be 100%. […] The Rhd signals of each composition were quantified at each time point, and normalized to the intensity before tourniquet release.

rat tail [2] = assay: Rat tail IVRA (Bier block) assessed by tail-flick test; format: in vivo
Protocol: In a typical IVRA procedures, the rats were anesthetized with isoflurane-oxygen. The tail vein was cannulated with a 24-gauge IV catheter, which was placed in the distal third of the tail and filled with heparinized saline (BD, USA). The tail was exsanguinated by wrapping it with a rubber strip. An elastic tourniquet was tightly applied proximal to the rubber strip and then the rubber strip was removed. Next, 0.4 mL of formulation was injected by a microinjector (1 mL) through the IV catheter. After releasing the tourniquet, animals were allowed to recover from the isoflurane anesthesia, then rat tail IVRA was assessed by the tail-flick test. In brief, tail-flick latency (the time from onset of radiant heat to tail-flick response) was measured by a tail-flick analgesia meter (Tail-Flick Unit 37370; Ugo Basile, Comerio, Italy). The intensity of radiant heat (parameter of the analgesia meter) was set at 90%, and cut-off time of radiant heat was set at 18 seconds. The testing area was between the injection site in the distal tail and the tourniquet, in the proximal tail. Baseline tail-flick latency was measured in untreated and saline injected rats. All evaluations were performed by two trained observers blinded to group allocation.

[3] = tested on: rat tails and organs (heart, liver, spleen, lung, kidney); assay: Histology (H&E) of tails and organs 24 hours after IVRA; format: in vivo; conditions: 0.5% bupivacaine
Protocol: 24 hours after the IVRA procedures, rats that had been administered saline, free bupivacaine (0.5% bupivacaine), micellar composition comprising bupivacaine (0.1% bupivacaine), and liposomal composition comprising bupivacaine (0.1% bupivacaine) were euthanized. Tails and organs (e.g., heart, liver, spleen, lung, and kidney) were harvested and fixed with 10% formalin. The organs were processed by standard procedures to produce hematoxylin and eosin-stained (H&E stained) slides. The tails were decalcified to remove bones before H&B staining procedures. Similar regions were examined in each organ from different groups. Tissues from healthy rats (no treatment) were used as negative controls.

HUVECs = assay: Cytotoxicity in HUVECs (MTS cell viability); format: cell-based, human; conditions: 0.1 mg/mL free bupivacaine, 24 hours
Protocol: HUVECs were purchased from ATCC. The cell line was authenticated by the suppliers and passaged in the laboratory for fewer than 3 months after resuscitation. HUVECs were maintained in a 37° C./5% CO2 humidified chamber in Endothelial Cell Growth Medium (EBM-2) (Lonza, USA). When the cells grew to 80% confluence, the cell studies were performed. For cytotoxicity studies, HUVECs were seeded in 96-well plates and incubated with various drug formulations (free bupivacaine, micellar composition comprising bupivacaine, and liposomal composition comprising bupivacaine) for 24 hours. Cell viability was evaluated by CellTiter 96® AQueous One Solution Cell Proliferation Assay (MTS) (Promega, USA) according to suppliers' instructions. The absorbance at 490 nm wavelength was detected with a microplate reader ([…]x, BioTek®, USA). Untreated cells served as a control. Results were shown as the average cell viability [(OD treat OD blank)/(OD control OD blank)×100%] of quintuplicate wells. […] The cells were washed three times with 3 mL of fresh medium and the washing medium was added to the collected incubated medium, the final volume of the collected medium was adjusted to 12 mL and the fluorescence intensity of each medium was measured by fluorescence spectrophotometer (Cary Eclipse, Agilent, USA). […]

[4] = Bupivacaine concentration in the blood after IVRA and tourniquet release; format: in vivo, rat
Protocol: The following were administered as IVRA: saline, 0.5% free bupivacaine, 0.1% free bupivacaine, micellar composition comprising bupivacaine (0.1% bupivacaine), and liposomal composition comprising bupivacaine (0.1% bupivacaine). After releasing the tourniquet, 200 microliters of blood was collected (through the tail vein opposite from that through formulations were injected) at 15 minutes, 30 minutes, 45 minutes, 90 minutes, 150 minutes, 240 minutes, 480 minutes and 720 minutes. Blood was put in ethylenediaminetetraacetic acid (EDTA) containing blood collection tubes (BD, USA). The samples were stored in ice water for 10-15 minutes and then centrifuged at 3,000 rpm at 4° C. for 5 minutes to obtain plasma. The hemocytes were lysed by ultrasonication (Sonics & Materials, Inc., USA) at 4° C. for 2 minutes and centrifuged at 13,000 rpm at 4° C. for 5 minutes to obtain a supernatant. The supernatant was combined with plasma. Next, 50 microliters of the blood samples were mixed with 10 microliters of sodium hydroxide aqueous solution (1 M) and 0.3 mL ethyl ether in an ice-water bath. The mixtures were vigorously vortexed for 2 minutes and centrifuged at 3,000 rpm for […] at room temperature. The organic phase was transferred to a 4 mL glass vial and evaporated to dryness in a 4° C. ice-water bath under vacuum. The residue was dissolved in 200 microliters of water-methanol (50/50, v/v), and was mechanically agitated for 30 seconds. The samples were transferred to clean polypropylene tubes and centrifuged at 13,000 rpm for 10 minutes. The supernatant was analyzed by HPLC.

[5] = 0.4 mL of 0.5% bupivacaine by IVRA, tourniquet time 5 min
[6] = 0.4 mL of 0.5% bupivacaine by IVRA, tourniquet time 10 min
[7] = 0.4 mL of 0.5% bupivacaine by IVRA, tourniquet time 15 min
[8] = 0.4 mL of 0.5% bupivacaine by IVRA, tourniquet time 20 min
[9] = 0.4 mL of 0.5% bupivacaine by IVRA, tourniquet time 30 min
[10] = bupivacaine concentration 0.1% w/v, 0.4 mL, 15 minute tourniquet
[11] = bupivacaine concentration 0.5% w/v, 0.4 mL, 15 minute tourniquet

Molecule: rhodamine [free Rhd]
- Rhd signal in tail sections (fluorescence microscopy) (rat tail blood vessels; 15 minutes after release of the tourniquet): very strong Rhd signals co-localized with blood vessel
- Rhd signal in tail sections (fluorescence microscopy) (rat tail blood vessels; four hours after release of the tourniquet): much weaker than at 15 minutes
- fluorescence intensity in the rat tail, % of intensity before tourniquet release (rat tail [1]): ~50%

Molecule: CCCCN1CCCCC1C(=O)Nc1c(C)cccc1C (centres unmarked) [Free bupivacaine, bupivacaine]
- anesthetic effect (tail-flick) (rat tail [2]; 0.1% bupivacaine, comparable to saline): did not achieve any anesthetic effect
- Anesthesia Duration (rat tail [2]; [5]): 0 h
- Successful Anesthesia (%) (rat tail [2]; [5]): 0%
- Anesthesia Duration (rat tail [2]; [6]): 0.3 ± 0.5 h
- Successful Anesthesia (%) (rat tail [2]; [6]): 25%
- Anesthesia Duration (rat tail [2]; [7]): 2 h and 2.0 ± 0.6 h
- Successful Anesthesia (%) (rat tail [2]; [7]): 100%
- animals with anesthesia (rat tail [2]; 0.4 mL of 0.5% bupivacaine by IVRA, tourniquet time 15 minutes): four of four
- Anesthesia Duration (rat tail [2]; [8]): 1.9 ± 0.5 h
- Successful Anesthesia (%) (rat tail [2]; [8]): 100%
- Anesthesia Duration (rat tail [2]; [9]): 2.0 ± 0.5 h
- Successful Anesthesia (%) (rat tail [2]; [9]): 100%
- Anesthesia Duration (rat tail [2]; [10]): 0 h
- Successful Anesthesia (%) (rat tail [2]; [10]): 0%
- Anesthesia Duration (rat tail [2]; [11]): 2.0 ± 0.6 h
- Successful Anesthesia (%) (rat tail [2]; [11]): 100%
- Anesthesia Duration (rat tail [2]; bupivacaine concentration 0.5% w/v, 0.4 mL, 15 minute tourniquet, listed as free bupivacaine): 2.0 ± 0.6 h
- histology of heart, liver, spleen, lung and kidney (H&E) [3]: no histological abnormalities
- tail myotoxicity (H&E) [3]: no myotoxicity
- cells alive (HUVECs): 22.1+/−2.4%
- mortality ([4]; 0.5% free bupivacaine by IVRA, rats): none died
- clinical observation after tourniquet release ([4]; rat, in vivo): dyspnea
- time of peak bupivacaine concentration in blood ([4]; rat, in vivo): 45 min
